Experimental data taken from ChEMBL document CHEMBL1151548 (1995).

Tested on: Mus musculus
Assay: Antimalarial activity against Plasmodium berghei K173 in mice (Mus musculus) by peroral administration using peanut oil
Type: functional

Cc1ccc(NC2O[C@@H]3O[C@@]4(C)CC[C@H]5[C@H](C)CC[C@@H]([C@H]2C)[C@@]35OO4)cc1 (stereo partly specified)
SD50: 2.77 mg/kg/day | SD90: 6.08 mg/kg/day

C[C@@H]1CC[C@H]2[C@@H](C)C(Nc3ccc(C(=O)O)cc3)O[C@@H]3O[C@@]4(C)CC[C@@H]1[C@]32OO4 (stereo partly specified)
SD50: 1.36 mg/kg/day | SD90: 6.88 mg/kg/day

C[C@@H]1CC[C@H]2[C@@H](C)C(Nc3ccc(Cl)cc3)O[C@@H]3O[C@@]4(C)CC[C@@H]1[C@]32OO4 (stereo partly specified)
SD50: 1.77 mg/kg/day | SD90: 4.5 mg/kg/day

C[C@@H]1CC[C@H]2[C@@H](C)C(Nc3ccc(I)cc3)O[C@@H]3O[C@@]4(C)CC[C@@H]1[C@]32OO4 (stereo partly specified)
SD50: 4.56 mg/kg/day | SD90: 11.03 mg/kg/day

C[C@@H]1CC[C@H]2[C@@H](C)C(Nc3cccc(C(=O)O)c3)O[C@@H]3O[C@@]4(C)CC[C@@H]1[C@]32OO4 (stereo partly specified)
SD50: 2.76 mg/kg/day | SD90: 8.23 mg/kg/day

C[C@@H]1CC[C@H]2[C@@H](C)C(Nc3cccc(Cl)c3)O[C@@H]3O[C@@]4(C)CC[C@@H]1[C@]32OO4 (stereo partly specified)
SD50: 1.62 mg/kg/day | SD90: 4.8 mg/kg/day

C[C@@H]1CC[C@H]2[C@@H](C)C(Nc3ccccc3)O[C@@H]3O[C@@]4(C)CC[C@@H]1[C@]32OO4 (stereo partly specified)
SD50: 2.63 mg/kg/day | SD90: 7.3 mg/kg/day

C[C@@H]1CC[C@H]2[C@@H](C)C(Nc3ccc(Br)cc3)O[C@@H]3O[C@@]4(C)CC[C@@H]1[C@]32OO4 (stereo partly specified)
SD50: 2.7 mg/kg/day | SD90: 9.1 mg/kg/day

C[C@@H]1CC[C@H]2[C@@H](C)C(Nc3cccc(Br)c3)O[C@@H]3O[C@@]4(C)CC[C@@H]1[C@]32OO4 (stereo partly specified)
SD50: 3.4 mg/kg/day | SD90: 5.38 mg/kg/day

COc1ccc(NC2O[C@@H]3O[C@@]4(C)CC[C@H]5[C@H](C)CC[C@@H]([C@H]2C)[C@@]35OO4)cc1 (stereo partly specified)
SD50: 3.5 mg/kg/day | SD90: 11.23 mg/kg/day

C[C@@H]1CC[C@H]2[C@@H](C)C(=O)O[C@@H]3O[C@@]4(C)CC[C@@H]1[C@]32OO4 [ARTEMISININ]
SD50: 5.13 mg/kg/day
